Test results taken from patent US20260226022A1, “CRYSTAL FORM AND USE OF PARP7 INHIBITOR AND SALT THEREOF” (QILU PHARMACEUTICAL CO., LTD., priority 2023, published 2026).
Entries after “also recorded” stand apart in the source; their conditions may differ. Each block holds one compound with its values, some of them ahead of it.

How the values were obtained:
[1] = Hygroscopicity test by dynamic vapor sorption (DVS); type: physicochemical; settings: for Hygroscopicity evaluation: Chinese Pharmacopoeia 2020 classes; for Weight gain at 80% RH / Weight gain at 90% RH: DVS, 25° C.; for Crystal form after DVS: XRPD before and after the DVS test
Procedure: The moisture adsorption of the sample was determined using a dynamic vapor sorption instrument from DVS Intrinsic. The sample was placed in a tared sample basket and weighed by the instrument automatically and analyzed according to the parameters in Table 10.

[2] = Influence factor tests (stability at temperature, humidity, light; HPLC purity and XRPD); type: physicochemical
Procedure: The purity was assayed using HPLC and the crystal form was assayed using XRPD on day 0, 2 and 7, and the experimental results are shown in Table 11.
The purity was assayed using HPLC and the crystal form was assayed using XRPD on day 0, 5 and 10, and the experimental results are shown in Table 12.

[3] = In vivo pharmacokinetic determination in mice (intravenous bolus and oral); design: species or system C57BL/6 mice
[4] = In vivo pharmacokinetic determination in rats (intravenous bolus and oral); design: species or system SD rats
From the text: To study the in vivo plasma pharmacokinetic behavior of the compounds of the present application after single intravenous bolus injection and oral administration, using male C57BL/6 mice or SD male rats as tested animals.
Healthy adult C57BL/6 mice or SD rats (3 rats/group), male, from Shanghai Jihui Laboratory Animal Breeding Co., Ltd. and Charles River Laboratories Co., Ltd.
The intravenous bolus injection and oral groups were consisted of 3 mice or rats, and the dose of intravenous bolus injection was 1 mg/kg in a volume of 5 mL/kg, and the dose of oral administration was 5 mg/kg in a volume of 10 mL/kg. The solvent was 5% DMSO/5% Kolliphor HS15/90% Saline.
After the animals were administered, 0.02 mL of blood was collected intravenously at 0.0833(IV), 0.25, 0.5, 1, 2, 4, 8, and 24 hours. Blood was placed in EDTA-K2 tubes, centrifuged at 4° C. and 4600 rpm for 5 min to separate the plasma, and stored at −80° C.
1) 10 μL of plasma sample was precipitated by adding 200 μL of acetonitrile, vortexed and mixed, and centrifuged for 15 min.
2) The supernatant after treatment was diluted with water, and then analyzed for the concentration of the tested compounds by LC/MS/MS.
• Liquid phase conditions: Shimadzu LC-30AD; • Mass spectrometry conditions: AB Sciex API 5500; • Chromatographic column: Phenomenex Kinetex 2.6 μm C18; • Mobile phase: A: 5 mM ammonium acetate aqueous solution (containing 0.05 vol % of formic acid); B: acetonitrile (containing 0.1 vol % of formic acid) flow rate: 0.5 mL/min;
Pharmacokinetic parameters were calculated using WinNonlin 8.0 and the pharmacokinetic parameters of the drugs administered intravenously and orally to mice or rats are shown in Tables 17 and 18 below. Wherein, “Dose” denotes the administered dose, “CL” denotes the plasma clearance, “Vss” denotes the volume of distribution at steady state of the drug, “T1/2” denotes the half-life of the drug, “AUC” denotes the area under the concentration-time curve. “Cmax” denotes the peak drug concentration, and “F” indicates bioavailability.

PARP7 = target: T1, PARP7 (Homo sapiens, UniProt Q7Z3E1); assay: PARP7 in vitro enzymatic assay; type: biochemical
T1 sequence (Q7Z3E1 1-657): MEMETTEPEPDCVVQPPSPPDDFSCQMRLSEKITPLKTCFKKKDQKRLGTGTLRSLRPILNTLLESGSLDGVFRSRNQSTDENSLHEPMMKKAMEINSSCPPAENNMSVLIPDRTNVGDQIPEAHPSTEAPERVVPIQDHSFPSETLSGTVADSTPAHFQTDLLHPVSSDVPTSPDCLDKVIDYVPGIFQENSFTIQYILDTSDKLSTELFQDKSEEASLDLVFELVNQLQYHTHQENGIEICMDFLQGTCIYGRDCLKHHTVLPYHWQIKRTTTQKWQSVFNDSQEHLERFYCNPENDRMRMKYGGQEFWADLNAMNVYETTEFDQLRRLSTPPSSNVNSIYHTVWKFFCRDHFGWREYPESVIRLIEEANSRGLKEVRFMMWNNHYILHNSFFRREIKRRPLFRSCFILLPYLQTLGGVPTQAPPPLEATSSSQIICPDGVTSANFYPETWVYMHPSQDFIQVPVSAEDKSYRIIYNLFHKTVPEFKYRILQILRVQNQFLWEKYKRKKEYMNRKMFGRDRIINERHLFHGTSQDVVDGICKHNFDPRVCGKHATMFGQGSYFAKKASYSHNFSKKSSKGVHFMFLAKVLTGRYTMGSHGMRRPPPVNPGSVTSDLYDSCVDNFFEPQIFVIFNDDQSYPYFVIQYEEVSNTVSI
Procedure: In this experiment, the inhibitory effect of the compound of formula (I) on PARP7 enzyme activity was tested by serial dilution of the tested compounds and assayed in replicates. 1. A histone-coated 384-well plate was prepared by adding 25 μL of histone solution to each well and incubating at 4° C. overnight. 2. PBST buffer, blocking buffer and assay buffer were prepared. 3. The histone-coated 384-well plate was washed 3 times using PBST buffer. Blocking was performed at room temperature for 1 hour using 50 μL of blocking buffer. The plate was washed 3 times using PBST buffer. 4. Compound preparation: A 2000× compound was prepared in a 96-well source plate. 50 nL of the compound was transferred from the source plate to a 96-well intermediate plate. Each well was supplemented with 39.95 μL of assay buffer. The plate was shaken well and centrifuged at 1000 rpm for 1 minute. 5 μL of the compound in DMSO was transferred to each well. 5. Enzymatic reaction: An enzyme mixture was incubated at 25° C. for 10 minutes. 10 μL of the enzyme mixture was added and incubated with the compound for 10 minutes at room temperature. 10 μL of assay buffer was added to the negative control wells of the assay plate. 10 μL of 2.5× Biotin-NAD+ was added to each well, followed by incubation at 25° C. for 60 min. […] The plate was immediately read using Paradigm and detected for reads at Ex550/Em620. […]

[5] = male, mouse, plasma, C57BL/6 mice, intravenous, 1 mg/kg
[6] = male, mouse, plasma, C57BL/6 mice, oral, 5 mg/kg
[7] = male, rat, plasma, SD rats, intravenous, 1 mg/kg
[8] = male, rat, plasma, SD rats, oral, 5 mg/kg

Structure (SMILES): O=C(OCCc1c[nH]c(=O)c(C(F)(F)F)c1)N1CCN(c2ncc(C(F)(F)F)cn2)CC1 [Crystal form X]
Hygroscopicity evaluation ([1]; listed as crystal form X): slight hygroscopicity
Weight gain at 80% RH ([1]; listed as crystal form X): 1.4%
Crystal form after DVS ([1]; listed as crystal form X): no transformation of the crystal

Structure (SMILES): C[C@@H](COCCC(=O)N1CCN(c2ncc(C(F)(F)F)cn2)CC1)Nc1cn[nH]c(=O)c1C(F)(F)F [RBN-2397]
F ([3]; C57BL/6 mice, oral, 5 mg/kg): 14%
AUC [3, 5]: 288 ng·h/mL
clearance [3, 5]: 56.7 mL/min/kg
Vd ([3]; male, mouse, plasma, C57BL/6 mice, intravenous, 1 mg/kg, read-out: Vss): 0.6 L/kg
AUC [3, 6]: 203 ng·h/mL
Cmax [3, 6]: 612 ng/mL
F ([4]; SD rats, oral, 5 mg/kg): 27%
AUC [4, 7]: 193 ng·h/mL
clearance [4, 7]: 85 mL/min/kg
half-life [4, 7]: 12 min
Vd ([4]; male, rat, plasma, SD rats, intravenous, 1 mg/kg, read-out: Vss): 1.2 L/kg
AUC [4, 8]: 264 ng·h/mL
Cmax [4, 8]: 319 ng/mL

Structure (SMILES): O=C(OCCc1c[nH]c(=O)c(C(F)(F)F)c1)N1CCN(c2ncc(C(F)(F)F)cn2)CC1 [Compound of formula (I), 2-(6-oxo-5-(trifluoromethyl)-1,6-dihydropyridin-3-yl)ethyl-4-(5-(trifluoromethyl)pyrimidin-2-yl) piperazine-1-carboxylate]
F ([3]; C57BL/6 mice, oral, 5 mg/kg): 80%
Exposure in plasma compared with control compound RBN-2397 ([3]; mouse plasma, same dose, intravenous bolus injection and oral administration): significantly higher exposure
Inhibition of PARP7 enzyme activity (conclusion in words) (PARP7): can effectively inhibit PARP7 enzyme activity
F ([4]; SD rats, oral, 5 mg/kg): 47%
Exposure in plasma compared with control compound RBN-2397 ([4]; rat plasma, same dose, intravenous bolus injection and oral administration): significantly higher exposure

Continued, in another order:

Purity (Area %) ([2]; 40° C./75% RH, day 2): 99.72 Area %
Purity (Area %) ([2]; 40° C./75% RH, day 7): 99.62 Area %
Purity (Area %) ([2]; 60° C., day 2): 99.73 Area %
Purity (Area %) ([2]; 60° C., day 7): 99.65 Area %
Purity (Area %) ([2]; T0, day 0): 99.73 Area %
Physicochemical stability (conclusion in words) ([2]; high humidity): relatively stable
Physicochemical stability (conclusion in words) ([2]; high temperature): relatively stable
Weight gain at 80% RH [1]: 1.07%
Weight gain at 80% RH ([1]; listed as crystal form IV): 1.07%
Weight gain at 90% RH [1]: 1.11%
Structure (SMILES): O=C(OCCc1c[nH]c(=O)c(C(F)(F)F)c1)N1CCN(c2ncc(C(F)(F)F)cn2)CC1 [Crystal form IV]
Hygroscopicity evaluation ([1]; listed as crystal form IV): slight hygroscopicity; also recorded: slightly hygroscopic
Crystal form after DVS ([1]; listed as crystal form IV): no transformation of the crystal; also recorded: unchanged

Purity (Area %) ([2]; 25° C./75% RH, day 5): 99.69% Area %
Purity (Area %) ([2]; 25° C./75% RH, day 10): 99.72% Area %
Purity (Area %) ([2]; 25° C./90% RH, day 5): 99.71% Area %
Purity (Area %) ([2]; 25° C./90% RH, day 10): 99.74% Area %
Purity (Area %) ([2]; 40° C., day 5): 99.71% Area %
Purity (Area %) ([2]; 40° C., day 10): 99.70% Area %
Purity (Area %) ([2]; 60° C., day 5): 99.72% Area %
Purity (Area %) ([2]; 60° C., day 10): 99.67% Area %
Purity (Area %) ([2]; Light exposure, day 5): 99.67% Area %
XRPD ([2]; Light exposure, day 5): Crystal form I
Purity (Area %) ([2]; Light exposure, day 10): 99.61% Area %
Purity (Area %) ([2]; T0, day 0): 99.69% Area %
Weight gain at 80% RH [1]: 13.29%
Weight gain at 80% RH ([1]; listed as crystal form I): 13.29%
Weight gain at 90% RH [1]: 13.77%
Structure (SMILES): O=C(OCCc1c[nH]c(=O)c(C(F)(F)F)c1)N1CCN(c2ncc(C(F)(F)F)cn2)CC1.[Na+] [Crystal form I]
Physicochemical stability (conclusion in words) ([2]; high humidity): a transformation of the crystal occurs under high humidity conditions
Physicochemical stability (conclusion in words) ([2]; high temperature): physicochemical stable at high temperature
Hygroscopicity evaluation [1]: Hygroscopic (hygroscopic weight gain of less than 15.0% but not less than 2.0%)
Hygroscopicity evaluation ([1]; listed as crystal form I): had hygroscopicity; also recorded: slightly hygroscopic
